# From PMC12192727, “Strategies to Develop Na,K-ATPase-α4 Inhibitors as Male Contraceptives” (International Journal of Molecular Sciences, 2025)
# Like-named read-outs stand apart in the source and are kept apart here. Marks after values point to notes of the source that are not given here.
# Columns and labels:
# in vitro = conditions: dog, MDCK, MDCK cells
# MDCK cell permeability = conditions: dog, MDCK
# MDCK cells = assay: MDCK cell permeability; conditions: MDCK cell line, 0.5% BSA
# Caco-2 cell permeability = format: in vitro ADME, human; conditions: human
# Protocol: (§1) The in vitro permeability and potential to be transported by P-gp (P-glycoprotein) were determined in a Caco-2 or MDCK cell line. Values are reported for a mass recovery > 60%. The efflux ratio was determined as follows: P^app(B-A)/Papp(A-B). The experimental details are reported in the Supporting Information (Tables S2–S5).
# (§2) The recovery can be determined using the following equation:
# (§3) Recovery%=(VA×[drug]acceptor+VD×[drug]donor)/(VD×[drug]initial, donor)
# (§4) Where VA is the volume (in mL) in the acceptor well (0.235 mL for Ap→Bl flux, and 0.075 mL for
# (§5) Bl→Ap), VD is the volume (in mL) in the donor well (0.075 mL for Ap→Bl flux, and 0.235 mL for
# (§6) The leakage of Lucifer Yellow, in unit of percentage (%), can be calculated using the following
# (§7) %LY leakage = 100×[LY]acceptor×0.3/([LY]donor×0.1+[LY]acceptor×0.3)
# (§8) LY leakage of <1% is acceptable to indicate the well-qualified MDCK/ Caco-2 monolayer.
# (§9) Table S5 . The Assessment of Caco-2 Cell Monolayer Integrity
# (§10) The apparent permeability coefficient (Papp), Efflux ratio (ER), recovery percentage, and LY leakage percentage can be
# (§11) calculated for Caco-2 Cell drug transport assays using the above equations. […]
# Caco-2 cells = assay: Caco-2 cell permeability; format: in vitro ADME, human; conditions: Caco-2 cell line
# Protocol: as §1, §2, §3, §4, §5, §6, §7, §8, §9, §10, §11
# [1] = Metabolic stability in rat hepatocytes; format: in vitro ADME; conditions: rat hepatocytes
# Protocol: (§12) The in vitro metabolic half-life (t1/2) is calculated using the slope of the log−linear regression from the percentage of the parent compound remaining versus the time relationship (κ). The experimental details are reported in the Supporting Information (Tables S6 and S7).
# mouse hepatocytes = assay: Metabolic stability in mouse hepatocytes; format: in vitro ADME
# Protocol: as §12
# [2] = tested on: Salmonella typhimurium strains TA98 and TA100; assay: Mini Ames test; format: cell-based; conditions: with and without S9
# Protocol: The mutagenic potential of 45 was evaluated using the Mini Ames test, which measures reverse mutations at the histidine locus in Salmonella typhimurium strains TA98 and TA100. The assay was conducted with and without exogenous metabolic activation (β-naphthoflavone/phenobarbital-induced rat liver S9). The experimental details are reported in the Supporting Information).
# [3] = In vivo pharmacokinetic study; design: species or system CD-1 mice; conditions: for Plasma concentration (mean): BLOQ = 0.5 ng/mL; for MRT inf: read-out: MRTInf_obs
# Protocol: Male CD-1 mice (approximately 6–8 weeks old, weighing 20–25 g, supplied by Vital River, Beijing, China) were used for the pharmacokinetic studies. Each mouse (n = 2) received either a bolus intravenous injection via the tail vein or oral gavage administration of the test compound. The formulation consisted of 20% HP-b-CD in PBS (pH 7.4), administered at a dose level of 10 mg/kg. The intravenous dose volume was 5 mL/kg, while the oral dose volume was 10 mL/kg. […] At the end of the study, the mice were euthanized by the inhalation of rising carbon dioxide concentrations. Samples were centrifuged at 4000× g for 5 min at 4 °C to obtain plasma. The plasma samples were stored at −75 ± 15 °C before analysis. Plasma samples were analyzed using the LC/MS/MS method. WinNonlin (PhoenixTM, version 8.3) software was employed for pharmacokinetic analysis calculations. The experimental details are reported in the Supporting Information. […]
# Snap Shot PK of 45 in CD1-Mice
# Formulations IV 20% HP-b-CD in PBS
# (1 picture or pasted object on this page, not shown here)
# Dosing Solutions: IV 2 mg/mL
# IV&PO Plasma: 0 .5, 1, 3, and 5 h
# Blood Sampling @ post dose
# Mobile Phase A 5% Acetonitrile in Water (0.1%Formic acid)
# Quantification Internal Standard Method
# 10 uL of plasma sample + 5 uL of blank solution +
# 200 uL of acetonitrile for PPE (protein precipitation
# 1. BLOQ = 0.5 ng/mL for plasma
# 3. PK parameters were estimated by non-compartmental model using WinNonlin 8.3
# 4. The bioavailability (F%) was calculated as following: […]
# [4] = Stability in PBS (pH 7.4); format: physicochemical; conditions: PBS pH 7.4, compound remaining after 60 min
# Protocol: Solubility, permeability, compound stability, metabolic stability, and toxicity studies were performed at Pharmaron (Waltham, MA, USA).
# hERG channel = hERG channel (Homo sapiens, UniProt Q12809)
# [5] = male, CD-1, mouse, plasma, CD1 mice, IV 10 mg/kg
# [6] = male, CD-1, mouse, plasma, CD1 mice, PO 10 mg/kg
# [7] = male, CD-1, mouse, plasma, IV 10 mg/kg
# [8] = male, CD-1, mouse, plasma, PO 10 mg/kg
# [9] = male, CD-1, mouse, CD1 mice, IV 10 mg/kg, plasma
# Chain of hERG channel (Q12809 whole entry): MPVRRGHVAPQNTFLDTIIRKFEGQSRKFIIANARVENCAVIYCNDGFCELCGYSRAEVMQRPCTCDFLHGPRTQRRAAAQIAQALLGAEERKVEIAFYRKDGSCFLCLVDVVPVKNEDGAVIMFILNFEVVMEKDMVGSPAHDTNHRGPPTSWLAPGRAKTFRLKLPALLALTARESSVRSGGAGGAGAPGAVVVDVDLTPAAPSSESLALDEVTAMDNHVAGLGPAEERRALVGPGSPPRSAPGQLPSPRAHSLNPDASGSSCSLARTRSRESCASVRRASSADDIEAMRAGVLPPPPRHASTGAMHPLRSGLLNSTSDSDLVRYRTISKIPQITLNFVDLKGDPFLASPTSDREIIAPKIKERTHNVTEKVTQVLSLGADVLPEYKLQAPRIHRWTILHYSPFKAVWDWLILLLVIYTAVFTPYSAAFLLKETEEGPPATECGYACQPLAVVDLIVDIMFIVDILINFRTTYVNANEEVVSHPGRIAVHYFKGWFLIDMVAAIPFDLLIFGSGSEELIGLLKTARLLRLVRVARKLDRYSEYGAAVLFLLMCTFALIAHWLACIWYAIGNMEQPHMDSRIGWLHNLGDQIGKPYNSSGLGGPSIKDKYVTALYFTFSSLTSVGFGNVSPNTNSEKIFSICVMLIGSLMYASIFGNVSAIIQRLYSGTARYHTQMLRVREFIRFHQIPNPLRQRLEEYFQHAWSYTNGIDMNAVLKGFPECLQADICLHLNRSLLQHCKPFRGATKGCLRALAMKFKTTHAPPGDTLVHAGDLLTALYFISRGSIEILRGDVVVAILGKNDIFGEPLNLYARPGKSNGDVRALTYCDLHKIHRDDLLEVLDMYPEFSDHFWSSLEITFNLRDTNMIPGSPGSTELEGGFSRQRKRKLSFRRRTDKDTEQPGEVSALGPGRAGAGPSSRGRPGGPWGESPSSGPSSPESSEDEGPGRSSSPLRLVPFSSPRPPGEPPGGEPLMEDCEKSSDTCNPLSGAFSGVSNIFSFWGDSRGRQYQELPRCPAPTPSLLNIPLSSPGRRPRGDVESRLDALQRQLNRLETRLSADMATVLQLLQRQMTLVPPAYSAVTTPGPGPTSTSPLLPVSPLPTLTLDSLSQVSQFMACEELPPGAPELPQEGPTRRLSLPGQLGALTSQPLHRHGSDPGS
structure (smiles),measurement,setting,value
"C[C@]12CC[C@H]3[C@@H](CC=C4C[C@@H](O)CC[C@@]43C)[C@@H]1CC[C@@H]2c1cn(Cc2ccccc2)nn1 [Compound 13, (3S,8S,9S,10R,13S,14S,17S)-17-(1-Benzyl-1H-1,2,3-triazol-4-yl)-10,13-dimethyl-2,3,4,7,8,9,10,11,12,13,14,15,16,17-tetradecahydro-1H-cyclopenta[a]phenanthren-3-ol]",recovery,in vitro; Recovery (%) AP-BL,70.2%
same,recovery,in vitro; Recovery (%) BL-AP,88.1%
same,Papp B→A,MDCK cell permeability,0.78 ×10⁻⁶ cm/s
same,efflux ratio,MDCK cell permeability,1.24
same,Papp A→B,"MDCK cell permeability; Papp (A-B), MDCK cells, BSA 0% for controls, 0.5% for 13",0.63 ×10⁻⁶ cm/s
same,Papp A→B,"MDCK cell permeability; Permeability Papp (A-B), MDCK cell line, 0.5% BSA",0.6 ×10⁻⁶ cm/s
same,Permeability Papp (A-B),MDCK cells,poor
"CC12CCC(=O)C=C1CCCC2n1cc(-c2ccccc2)nn1 (stereo not shown) [Compound 45, 4a-Methyl-5-(4-phenyl-1H-1,2,3-triazol-1-yl)-4,4a,5,6,7,8-hexahydronaphthalen-2(3H)-one]",Papp A→B,"Caco-2 cell permeability; Caco-2, Caco-2 cell line, read-out: Permeability Papp (A-B)",24 ×10⁻⁶ cm/s
same,Papp A→B,"Caco-2 cell permeability; Caco-2, Caco-2 cells, read-out: Papp (A-B)",24 ×10⁻⁶ cm/s
same,recovery,"Caco-2 cell permeability; Caco-2, Caco-2 cells, read-out: Recovery (%) AP-BL",64.3%
same,recovery,"Caco-2 cell permeability; Caco-2, Caco-2 cells, read-out: Recovery (%) BL-AP",77.9%
same,Papp B→A,Caco-2 cell permeability; Caco-2 cells,11.8 ×10⁻⁶ cm/s
same,efflux ratio,"Caco-2 cell permeability; Caco-2 cells, Papp(B-A)/Papp(A-B)",0.49
same,Permeability Papp (A-B),Caco-2 cells,good
same,hepatocyte CLint at 1 μM,[1]; read-out: In vitro Clint,72.2 µL/min/1e6 cells
same,half-life at 1 µM,"[1]; rat, hepatocytes, read-out: In vitro T1/2",19.2 min
same,CLint scaled at 1 µM,"[1]; rat, hepatocytes, read-out: Scale-up Clint",338 mL/min/kg
same,Remaining Percentage (%),"mouse hepatocytes; mouse boiled hepatocytes, 0 min",100.00%
same,Remaining Percentage (%),"mouse hepatocytes; mouse boiled hepatocytes, 15 min",104.93%
same,Remaining Percentage (%),"mouse hepatocytes; mouse boiled hepatocytes, 30 min",101.77%
same,Remaining Percentage (%),"mouse hepatocytes; mouse boiled hepatocytes, 60 min",101.78%
same,Remaining Percentage (%),"mouse hepatocytes; mouse boiled hepatocytes, 90 min",101.42%
same,Remaining Percentage (%),"mouse hepatocytes; mouse boiled hepatocytes, 120 min",100.86%
same,Hepatic Extraction Ratio (E),mouse hepatocytes; mouse hepatocytes,0.91
same,Predicted hepatic CL,mouse hepatocytes; mouse hepatocytes,81.91 mL/min/kg
same,Remaining Percentage (%),"mouse hepatocytes; mouse hepatocytes, 0 min",100.00%
same,Remaining Percentage (%),"mouse hepatocytes; mouse hepatocytes, 15 min",54.16%
same,Remaining Percentage (%),"mouse hepatocytes; mouse hepatocytes, 30 min",31.17%
same,Remaining Percentage (%),"mouse hepatocytes; mouse hepatocytes, 60 min",10.30%
same,Remaining Percentage (%),"mouse hepatocytes; mouse hepatocytes, 90 min",3.01%
same,Remaining Percentage (%),"mouse hepatocytes; mouse hepatocytes, 120 min",0.80%
same,"Metabolic Stability in Hepatocytes (60 min), compound remaining","mouse hepatocytes; mouse, 60 min",10%
same,Mini Ames,[2],Mini Ames ^e: negative
same,AUC_%Extrap_obs,"[3]; CD1 mice, IV 10 mg/kg",0.250%
same,AUClast/D,"[3]; CD1 mice, IV 10 mg/kg",55.9 kg·ng·h/mL/mg
same,Vss_obs,"[3]; CD1 mice, IV 10 mg/kg (supplement)",1.10 L/kg
same,AUC_%Extrap_obs,"[3]; CD1 mice, PO 10 mg/kg",3.43%
same,AUClast/D,"[3]; CD1 mice, PO 10 mg/kg",7.43 kg·ng·h/mL/mg
same,F% (oral bioavailability),"[3]; CD1 mice, PO 10 mg/kg, 10 mg/kg",13.7%
same,Plasma concentration (mean),"[3]; IV 10 mg/kg, 3 h",BLOQ
same,Plasma concentration (mean),"[3]; IV 10 mg/kg, 5 h",BLOQ
same,bioavailability,"[3]; male, CD-1, mouse, plasma, po, 10 mg/kg, CD1 mice, PO 10 mg/kg, read-out: F% (oral bioavailability)",14%
same,AUC(0-inf),[3]; [5],561 ng·h/mL
same,AUC(0-t),[3]; [5],559 ng·h/mL
same,half-life,[3]; [5],7.5 min
same,Vd,"[3]; male, CD-1, mouse, plasma, CD1 mice, IV 10 mg/kg (Table 5), read-out: Vss",1.1 L/kg
same,MRT inf,[3]; [5],3.7 min
same,AUC(0-inf),[3]; [6],77 ng·h/mL
same,AUC(0-t),[3]; [6],74.3 ng·h/mL
same,Tmax,[3]; [6],30 min
same,half-life,[3]; [6],64.2 min
same,MRT inf,[3]; [6],67.8 min
same,concentration at 0.5 h,[3]; [7],124 ng/mL
same,concentration at 1 h,[3]; [7],7.76 ng/mL
same,concentration at 0.5 h,[3]; [8],79.7 ng/mL
same,concentration at 1 h,[3]; [8],22.8 ng/mL
same,concentration at 3 h,"[3]; male, CD-1, mouse, plasma, PO 10 mg/kg, 3 h",2.14 ng/mL
same,concentration at 5 h,"[3]; male, CD-1, mouse, plasma, PO 10 mg/kg, 5 h",1.71 ng/mL
same,clearance,"[3]; male, CD-1, mouse, plasma, mice, intravenous 10 mg/kg, read-out: clearance rate",297 mL/min/kg
same,C0,[3]; [9],1980 ng/mL
same,Cmax,[3]; [9],124 ng/mL
same,Cmax,"[3]; male, CD-1, mouse, CD1 mice, PO 10 mg/kg, plasma",79.7 ng/mL
same,Stability,[4],Stability: 96% ^a
same,hERG IC50,hERG channel,weak inhibitor
